The test has as its system plasmid nucleic acid pRSVLuc. As to the kind of experiment: Surface plasmon resonance (BIAcore) binding kinetics of peptides/conjugates to immobilized biotinylated plasmid DNA. The settings on record: for ka: apparent rate constant for association; for Kd: read-out: equilibrium dissociation constant KD. (In general: In SPR one partner is held on a chip, and binding of the other changes the refractive index at the surface.)

Where two headings read alike, the source gives them in different places. * marks the point of attachment. Acm = CC(=O)NC*

The term Kd denotes the constant that tells how readily two partners part at equilibrium. Regarding “NH2-KKSPKKAKKPAAKKSPKKAKKPAYC(Acm)-COOH (H-KKSPKKAKKPAAKKSPKKAKKPAYC(Acm)-OH; SMILES CC(=O)NCSC[C@H](NC(=O)[C@H](Cc1ccc(O)cc1)NC(=O)[C@H](C)NC(=O)[C@@H]1CCCN1C(=O)[C@H](CCCCN)NC(=O)[C@H](CCCCN)NC(=O)[C@H](C)NC(=O)[C@H](CCCCN)NC(=O)[C@H](CCCCN)NC(=O)[C@@H]1CCCN1C(=O)[C@H](CO)NC(=O)[C@H](CCCCN)NC(=O)[C@H](CCCCN)NC(=O)[C@H](C)NC(=O)[C@H](C)NC(=O)[C@@H]1CCCN1C(=O)[C@H](CCCCN)NC(=O)[C@H](CCCCN)NC(=O)[C@H](C)NC(=O)[C@H](CCCCN)NC(=O)[C@H](CCCCN)NC(=O)[C@@H]1CCCN1C(=O)[C@H](CO)NC(=O)[C@H](CCCCN)NC(=O)[C@@H](N)CCCCN)C(=O)O) [NBC8]”, the ka (SPR, PBS, 25° C.) turned out to be 50000 M⁻¹ s⁻¹. In addition, where the note is “apparent rate constant for dissociation, SPR, PBS, 25° C.”, the kd was found to be 0.06248 s⁻¹. Where the note is “approximate values”, the “apparent dissociation constant kd” value is reported as “approximately 1×10^-2 sec^-1” and the Kd was ~1 µM.

Take “NH2-TKKAWKKAEKKAAKKCGVSAKKAAKKAWKKA-CONH2 (H-TKKAWKKAEKKAAKKCGVSAKKAAKKAWKKA-NH2) [NBC11]”: the ka (SPR, PBS, 25° C.) was 20700 M⁻¹ s⁻¹. Also, under “approximate value, unit inferred”, the Kd was ~0.0005 µM. The “apparent dissociation constant kd” value (approximate values) is reported as “approximately 1.6×10^-4 sec^-1”. In addition, the association reaction result (shape of association kinetics) was “clear biphasic kinetics”.

The values above are taken from US6218112A, “Optimization of gene delivery and gene delivery system” (Cobra Therapeutics Limited, priority 1997, dated 2001).
